By IC50 is commonly meant the point on the concentration scale where inhibition reaches its midpoint. What is called EC50 is the concentration giving half of the maximal effect.

Experiment [1] relates to PC12 cells. In words: Neuroprotective activity against Aβ25-35 induced PC12 cell death by MTT assay. Format: cell-based. The settings on record: for Cell viability: Aβ25-35-induced cell damage in PC12 cells, control = 1.000, model (Aβ25-35) = 0.633, test concentration not given; for EC50: Rattus norvegicus. On the procedure:
Meanwhile, all isolated compounds were evaluated for their neuroprotective potency against the Aβ25-35 induced PC12 cell death by MTT assay.
A cell viability assay was conducted to test the cytotoxic effects of the compounds on PC12 cells. Meanwhile, the neuroprotective activity of all compounds against the Aβ25-35 induced PC12 cell death by MTT assay. PC12 cells were divided into four groups: normal control, model, positive control (Resveratrol), and isolates intervention groups (1, 10, 20, 40, 60, 80, 100 μmol/L). Detailed experimental procedures and experimental data can be found in the Supporting Information.
Cell culture. […] The cells were maintained at 37°C in a humidified atmosphere containing 5% CO2. The culture medium was replaced every three days, and the cells were passaged when they reached 70% confluency.
Preparation of Aβ25-35. Aβ25-35 was dissolved in sterile double-distilled water to prepare a 2 mM stock solution. The solution was then incubated at 37°C for 7 days to induce aggregation.
MTT assay for cell viability. PC12 cells were divided into four groups: normal control, model, positive control (Resveratrol), and isolates intervention groups (1, 10, 20, 40, 60, 80, 100 μmol/L). The cells were seeded in 96-well plates at an appropriate density with 200 μL medium per well and were cultured for 24 hours. The positive control and intervention groups were pretreated with different concentrations of drug-containing medium for 2 hours, after which 2 μL of Aβ25-35 was added to each well of the model, positive control, and intervention groups for 24 hours. After the treatment, 20 μL of […] MTT solution was added to each well and incubated for 4 hours. The medium was then removed, and 150 μL of DMSO was added to each well. The plate was shaken until the formazan product was completely dissolved. The absorbance was measured at 570 nm using a spectrophotometer.

The target in experiment [2] is acetylcholinesterase (AChE) (Homo sapiens, UniProt P22303). Description: biochemical. On the procedure:
The first and the main class of drugs currently used for AD are the AChE inhibitors and are widely used for the symptomatic treatment of mild-moderate AD [2]. All alkaloids were screened toward AChE via improved Ellman’s method (Supporting Information).
The compounds were prepared in DMSO and diluted in buffer solution to different concentrations. In a 96-well plate, 140 μL of PBS (pH = 8) buffer, 20 μL of all the sample solutions were transferred in each well, and 20 μL of 0.2 U/mL AChE solution were added. The mixture was incubated at 37°C for 10 minutes. Subsequently, 10 μL of 3 mM 5,5'-dithiobis-(2-nitrobenzoic acid) (DTNB) and 10 μL of 15 mM acetylthiocholine (ATCl) were added, followed by reaction at 37 °C for 20 minutes. […] Each experimental group was set up with three replicate wells, and huperzine A was used as the positive control.

Setting [3] is: PC-12, against Aβ25-35-induced PC12 cell damage, MTT, resveratrol as positive control, read-out: EC50 (μM), neuroprotective effect.
Setting [4] is: PC-12, read-out: EC50 (μM), neuroprotective effect.

Like-named read-outs stand apart in the source and are kept apart here.

Chain of acetylcholinesterase (AChE) (P22303 32-614, species assumed): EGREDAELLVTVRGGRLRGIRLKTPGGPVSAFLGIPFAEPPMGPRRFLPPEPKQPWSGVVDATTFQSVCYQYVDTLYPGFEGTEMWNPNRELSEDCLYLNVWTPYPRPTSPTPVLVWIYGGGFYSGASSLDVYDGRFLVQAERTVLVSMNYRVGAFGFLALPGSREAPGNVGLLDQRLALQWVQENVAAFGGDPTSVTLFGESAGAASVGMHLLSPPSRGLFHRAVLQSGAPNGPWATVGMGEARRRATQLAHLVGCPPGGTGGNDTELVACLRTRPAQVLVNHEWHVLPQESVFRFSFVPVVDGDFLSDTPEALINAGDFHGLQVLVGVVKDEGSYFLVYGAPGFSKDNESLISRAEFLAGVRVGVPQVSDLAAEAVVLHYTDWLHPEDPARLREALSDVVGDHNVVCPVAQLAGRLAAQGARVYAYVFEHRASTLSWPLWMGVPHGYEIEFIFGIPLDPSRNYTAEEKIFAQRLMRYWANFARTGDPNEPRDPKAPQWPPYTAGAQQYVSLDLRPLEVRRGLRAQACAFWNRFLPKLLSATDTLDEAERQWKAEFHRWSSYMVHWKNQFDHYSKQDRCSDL

The compound `CC1N2CCCCC2C23CC(CC4CCCN1C42)C1CCCCN1C3` (racemic) [Compound 1, (±)-Ormohenin A] returned a Cell viability in experiment [1] (MTT) of 0.641 ± 0.009.
Same read-out and setting: with `CC1N2CCCCC2C23CC(CC4CCCN1C42)C1CCCCN1C3` (racemic) [Compound 2, (±)-Ormohenin B] the figure was 0.693 ± 0.024.
On the same count and under the same terms, the result for `C1CC[C@H]([C@@]23C[C@H](C[C@H]4CCCN[C@@H]42)[C@@H]2CCCCN2C3)NC1` (racemic) [Compound 5, (±)-18-epiormosanine] reads 0.698 ± 0.032.
Same read-out and setting: the result for `C1CC[C@@H]([C@@]23C[C@H](C[C@H]4CCCN[C@@H]42)[C@@H]2CCCCN2C3)NC1` (racemic) [Compound 6, (±)-ormosanine] reads 0.704 ± 0.038.
Take `CC1N2CCCCC2C23CC(CC4CCCN1C42)C1CCCCN1C3` (single isomer, unassigned; (-)) [Compound 3, (−)-ormohenin C]: the IC50 in experiment [2] (improved Ellman's method, huperzine A as positive control, read-out: AChE inhibitory activity IC50) came to 142 ± 19.6 µM. Further, the Cell viability in experiment [1] (MTT) is 0.899 ± 0.061. The EC50 in experiment [1] (setting [3]) amounted to 15.5 µM.
In experiment [1] (MTT), `C[C@@H]1N2CCCC[C@H]2[C@@]23C[C@H](C=C4CCCN1[C@@H]42)[C@@H]1CCCCN1C3` [Compound 4, (−)-ormohenin D] displayed a Cell viability of 0.629 ± 0.013.
In experiment [1] (MTT), `O=C1CC=C[C@@H]2[C@@H]3C[C@H](CN12)[C@H]1CCCCN1C3` [Compound 7, (6R,7S,9S,11R)-4,5-dehydro-α-isolupanine] had a Cell viability of 0.650 ± 0.009.
`O=c1cccc2n1C[C@H]1C[C@@H]2CN2CC=CC[C@@H]12` [Compound 8, (7S,9S,11S)-15,16-dehydroanagyrine]: in experiment [1] (MTT), the Cell viability is given as 0.662 ± 0.041.
As to `O=C1CCC[C@@H]2[C@@H]3C[C@H](CN12)[C@@H]1CCCCN1C3` [Compound 9, (+)-lupanine], in experiment [1] (MTT), the Cell viability came out at 0.974 ± 0.065. For the same compound, in experiment [1] (setting [4]), the EC50 came to 10.4 µM.
For the compound `O=c1cccc2n1C[C@H]1C[C@@H]2CN2CCCC[C@@H]12` [Compound 10, (+)-anagyrine], the Cell viability in experiment [1] (MTT) is given as 0.645 ± 0.011.
The compound `O=C1CCC[C@@H]2[C@@H]3C[C@H](CN12)[C@H]1CCCCN1C3` [Compound 11, (+)-α-isolupanine] displayed a Cell viability in experiment [1] (MTT) of 0.653 ± 0.027.
In experiment [2], `O=c1cccc2n1C[C@@H]1CNC[C@H]2C1` [Compound 12, (+)-cytisine] showed a concentration for half-maximal inhibition (IC50) of 6.85 ± 1.2 µM. This compound yielded a Cell viability in experiment [1] (MTT) of 0.934 ± 0.031. The EC50 in experiment [1] (setting [4]) is 7.99 µM.
For `Oc1ccc(/C=C/c2cc(O)cc(O)c2)cc1` [Resveratrol, reference compound], the Cell viability in experiment [1] (MTT) was 0.82 ± 0.039. Moreover, the EC50 in experiment [1] (setting [3]) was determined as 5.99 µM.

Values taken from publication PMC12378240, “(+)-/(−)-Ormohenins A and B, two pairs of ormosanine-type enantiomers and their derivatives with neuroprotective activity from Ormosia henryi Prain” (Natural Products and Bioprospecting, 2025).
